Experimental data from paper PMC8850458, “The AUTOTAC chemical biology platform for targeted protein degradation via the autophagy-lysosome system” (Nature Communications, 2022).
“And” between values parts separate entries of the source, which are not always exact repeats. Identical values can stand only once. Like-named read-outs stand apart in the source and are kept apart here.

Columns and labels:
p62 = molecular target: T1, p62 (Homo sapiens, UniProt Q13501); test: In vitro p62 oligomerization assay; assay type: biochemical; conditions: HEK293T lysate
T1 construct: expressed in transfected cells; host or cells: HEK293T, transient; whole lysate used
Protocol: HEK293T cells were transiently transfected with a plasmid encoding p62-myc/his fusion proteins. Cells were resuspended in lysis buffer [50 mM HEPES (pH 7.4), 0.15 M KCl, 0.1% Nonidet P-40), 10% glycerol, containing a mixture of protease inhibitors and phosphatase inhibitor (Abcam)]. To lyse the cells, 10 cycles of freezing and thawing was done, followed by centrifugation at 13,000 × g for 20 min at 4 °C. Using a BCA assay, the protein concentration of the supernatant was measured. A total of 1 μg of protein was incubated with 1 mM of p62-ZZ ligands in the presence of 100 μM bestatin (Enzo) at room temperature for 2 h. After incubation, each sample was mixed with non-reducing 4X LDS sample buffer, heated at 95 °C for 10 min, and resolved using 4–20% gradient SDS-PAGE (Bio-Rad). To monitor the conversion of p62 monomers into oligomers or aggregates, IB assay was performed using anti-myc antibody.

tauP301L = tauP301L (Homo sapiens, UniProt P10636, P618L); test: WB degradation of tauP301L in SH-SY5Y-tauP301L cells; assay type: cell-based; conditions: for Tau normalized to GAPDH and control, AVG %: average of N=3
Procedure, shortened: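 Lysates in SDS/LDS or Laemmli sample buffer were separated by SDS-PAGE and blotted to PVDF. Target protein was detected with primary antibodies, HRP secondary and ECL on X-ray film, and degradation quantified by band densitometry.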

[1] = system: tauP301L inclusion bodies; test: ICC of TauP301L-GFP autophagic targeting in HeLa cells; assay type: cell-based; conditions: Fig. 5k, compound +HCQ; for TauP301L-GFP / LC3 colocalization, cells counted per 50 cells (individual replicates): count out of 50 cells
Protocol: Fig. 5 Selective degradation of pathological aggregation-prone tau species by aggregate-binding AUTOTAC. a–c WB in SH-SY5Y-tauP301L cells treated with PBA-1105, PBA, or YTK-1105 at the indicated concentrations. d Densitometry of (a, b, and c) (n = 3 biologically independent experiments). e–g Same as (a–c) but with Anle138b-F105, Anle138b, or YTK-105. (h) Densitometry of (e, f, and g) (n = 3 biologically independent experiments). i WB in SH-SY5Y-tauP301L cells treated with PBA-1105 (0.1 μM) at the indicated time points. j ICC of HeLa cells expressing recombinant TauP301L-GFP and treated with the indicated compounds (1 μM, 24 h) and HCQ (10 μM, 24 h). Scale bar, 10 μm. k Quantification of (j) (n = 3 biologically independent experiments each counting 50 cells). l In vivo oligomerization assay in SH-SY5Y-tauP301L cells treated with okadaic acid (15 nM, 24 h) and the indicated compounds (0.1 μM, 24 h). m Triton X-100-fractionation assay in SH-SY5Y-tauP301L cells treated with a combination of HCQ (10 μM, 24 h), okadaic acid (15 nM, 24 h) or PBA-1105 (0.1 μM, 24 h). Data are presented as mean values ± SD where relevant. P-values (from a two-sided unpaired t test): **P < 0.00821. Source data are provided with this paper.
Cells were cultured on coverslips coated with poly-L-lysine (Sigma) to observe cellular localization of proteins. Using 4% paraformaldehyde in PBS (pH 7.4), the cells were fixed for 15 min at room temperature and washed three times for 5 min with PBS. After fixing, the cells were permeabilized with 0.5% Triton X-100 in PBS solution for 15 min and washed three times with PBS for 5 min. The cells were blocked containing 2% BSA in PBS solution for 1 h at room temperature. Subsequently, the cells were incubated with primary antibody diluted in 2% BSA/PBS solution overnight at 4 °C, followed by washing the cells three times for 10 min with PBS and incubated with Alexa Fluor-conjugated secondary antibody diluted in 2% BSA/PBS for 30 min at room temperature. Using a DAPI-containing mounting medium (Vector Laboratories), the coverslips were mounted on glass slides. Confocal images were taken by laser scanning confocal microscope 510 Meta (Zeiss) and analyzed by Zeiss LSM Image Browser (ver. 4.2.0.121). […] Quantification results are shown as mean ± S.D. or S.E.M. of three independent experiments

[2] = system: endogenous wild-type murine tau; conditions: for AVG (%) Insoluble mTau / AVG (%) Soluble mTau: control 100
[3] = system: AR pathways (EGFR, p-Akt/Akt); test: WB of AR downstream signaling in DHT-activated cells; assay type: cell-based; conditions: levels of EGFR and p-Akt/Akt
Excerpt: To assess the therapeutic efficacy of autophagy-targeting degraders, we compared the downstream signaling of AR and ERβ in cells treated with either AUTOTACs or their cognate TBLs. Dihydrotestosterone (DHT) and estradiol (E2) are natural agonists that respectively bind AR and ERβ and induce their dimerization and nuclear translocation, resulting in transcriptional activation of downstream proteins[27],[28]. […] Next, we examined the potency of AUTOTACs in cancer cell growth and progression.
Adherent cells were washed with phosphate-buffered saline (PBS) and cell pellets were lysed in SDS-based sample buffer (277.8 mM Tris-HCI, pH 6.8, 4.4% LDS, 44.4% (v/v) glycerol) containing beta-mercaptoethanol. Alternatively, cell pellets or protein supernatants were lysed in 5X Laemmli sample buffer. Whole-cell lysates were separated using SDS-PAGE, and transferred onto polyvinyllidene difluoride membranes at 100 V for 2 h at 4 °C.

[4] = densitometry, dosage degradation, SH-SY5Y-Tau-TiFC, 1 nM
[5] = densitometry, dosage degradation, SH-SY5Y-Tau-TiFC, 1 nM, read-out: (Tau normalized to GAPDH) normalized to control, percentage (individual replicates N=1, N=2, N=3)
[6] = densitometry, dosage degradation, SH-SY5Y-Tau-TiFC, 10 nM
[7] = densitometry, dosage degradation, SH-SY5Y-Tau-TiFC, 100 nM
[8] = densitometry, dosage degradation, SH-SY5Y-Tau-TiFC, 1 uM
[9] = densitometry, dosage degradation, SH-SY5Y-Tau-TiFC, 10uM

tauP301L, sequence (P10636 1-441 isoform P10636-8 P301L): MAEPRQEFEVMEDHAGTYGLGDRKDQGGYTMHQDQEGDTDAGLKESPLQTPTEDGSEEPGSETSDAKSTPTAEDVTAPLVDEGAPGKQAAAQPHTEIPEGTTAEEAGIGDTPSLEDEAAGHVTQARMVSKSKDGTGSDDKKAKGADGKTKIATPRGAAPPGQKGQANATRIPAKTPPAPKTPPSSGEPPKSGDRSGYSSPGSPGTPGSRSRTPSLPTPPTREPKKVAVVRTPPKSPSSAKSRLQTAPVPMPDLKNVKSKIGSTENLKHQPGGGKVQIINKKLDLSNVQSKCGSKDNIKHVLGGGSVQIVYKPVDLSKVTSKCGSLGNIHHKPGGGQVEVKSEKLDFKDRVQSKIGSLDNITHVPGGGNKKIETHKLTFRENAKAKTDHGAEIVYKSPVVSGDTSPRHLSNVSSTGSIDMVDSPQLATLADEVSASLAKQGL
T1 sequence (Q13501 whole entry): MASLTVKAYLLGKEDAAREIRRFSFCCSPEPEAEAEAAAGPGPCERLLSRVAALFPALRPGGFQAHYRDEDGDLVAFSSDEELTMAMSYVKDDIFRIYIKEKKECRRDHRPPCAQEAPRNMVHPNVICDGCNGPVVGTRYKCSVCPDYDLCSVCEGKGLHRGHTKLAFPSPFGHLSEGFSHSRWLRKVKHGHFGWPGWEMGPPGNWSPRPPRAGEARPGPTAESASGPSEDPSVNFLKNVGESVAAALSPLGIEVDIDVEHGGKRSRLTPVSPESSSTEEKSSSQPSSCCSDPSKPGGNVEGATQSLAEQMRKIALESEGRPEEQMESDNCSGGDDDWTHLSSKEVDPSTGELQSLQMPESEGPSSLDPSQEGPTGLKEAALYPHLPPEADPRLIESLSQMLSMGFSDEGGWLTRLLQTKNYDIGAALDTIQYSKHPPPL

O=C(CCCc1ccccc1)NCCOCCOCCOCCNCc1ccc(OCc2ccccc2)c(OCc2ccccc2)c1 [PBA-1105]
p62 self-oligomerization (p62): triggered its self-oligomerization | DC50 (tauP301L; SH-SY5Y-tauP301L cells): 1 to 10 nM | Dmax,24 hr of tauP301L degradation (tauP301L; SH-SY5Y-tauP301L cells): 100 nM | Tau normalized to GAPDH and control, AVG % (tauP301L; [4]): 46.0558% | remaining activity at 0.001 µM (tauP301L; [5]): 45% | Tau normalized to GAPDH and control, AVG % (tauP301L; [6]): 19.6838% | Tau normalized to GAPDH and control, AVG % (tauP301L; [7]): 23.7212% | Tau normalized to GAPDH and control, AVG % (tauP301L; [8]): 30.8722% | Tau normalized to GAPDH and control, AVG % (tauP301L; densitometry, dosage degradation, SH-SY5Y-Tau-TiFC, 2.5uM): 20.4143% | remaining activity at 2.5 µM (tauP301L; densitometry, dosage degradation, SH-SY5Y-Tau-TiFC, 2.5uM, read-out: (Tau normalized to GAPDH) normalized to control, percentage (individual replicates N=1, N=2, N=3)): 19.2% | Tau normalized to GAPDH and control, AVG % (tauP301L; densitometry, dosage degradation, SH-SY5Y-Tau-TiFC, 5uM): 12.549% | Tau normalized to GAPDH and control, AVG % (tauP301L; [9]): 73.3109% | TauP301L-GFP / LC3 colocalization, AVG of cells per 50 cells [1]: 33 | TauP301L-GFP / LC3 colocalization, percentage AVG [1]: 66 percentage | TauP301L-GFP / LC3 colocalization, cells counted per 50 cells (individual replicates) [1]: 33 and 41 and 25 | AVG (%) Insoluble mTau ([2]; 20 mg/kg): 110.945% | AVG (%) Soluble mTau ([2]; 20 mg/kg): 97.7163% | AVG (%) Insoluble mTau ([2]; 50 mg/kg): 56.7728% | AVG (%) Soluble mTau ([2]; 50 mg/kg): 133.669% | endogenous wild-type murine tau in detergent-soluble or -insoluble fractions ([2]; mouse, in vivo): did not degrade

O[C@H](CNCCOCCOCCOc1ccc(-c2c(-c3ccccc3)nn3c(C(F)(F)F)cc(C(F)(F)F)nc23)cc1)COc1ccc(OCc2ccccc2)c(OCCCc2ccccc2)c1 [PHTPP-1304]
p62 self-oligomerization (p62): induced self-oligomerization of p62

O=C(O)CCCc1ccccc1 [4-PBA, 4-phenylbutyric acid]
Tau normalized to GAPDH and control, AVG % (tauP301L; [4]): 80.1686% | remaining activity at 0.001 µM (tauP301L; [5]): 76.8% | Tau normalized to GAPDH and control, AVG % (tauP301L; [6]): 93.9777% | Tau normalized to GAPDH and control, AVG % (tauP301L; [7]): 90.7287% | Tau normalized to GAPDH and control, AVG % (tauP301L; [8]): 84.0643% | Tau normalized to GAPDH and control, AVG % (tauP301L; [9]): 93.7866% | remaining activity at 10 µM (tauP301L; densitometry, dosage degradation, SH-SY5Y-Tau-TiFC, 10uM, read-out: (Tau normalized to GAPDH) normalized to control, percentage (individual replicates N=1, N=2, N=3)): 87% | TauP301L-GFP / LC3 colocalization, AVG of cells per 50 cells [1]: 13.6667 | TauP301L-GFP / LC3 colocalization, percentage AVG [1]: 27.3333 percentage | TauP301L-GFP / LC3 colocalization, cells counted per 50 cells (individual replicates) ([1]; listed as PBA): 12 and 22 and 7

C=CC(C)(O)C(=O)N(C(=O)NCCOCCOCCNCC(O)COc1ccc(OCCc2ccccc2)c(OCCc2ccccc2)c1)c1cc(Cl)cc(Cl)c1 (centres unmarked) [VinclozolinM2-2204]
inhibition of AR pathways relative to its TBL [3]: approximately 4 folds
